According to ChEMBL document CHEMBL3217745, “Identification of false positives in HTS hits to lead: The application of Bayesian models in HTS triage to rapidly deliver a series of selective TRPV4 antagonists” (Medchemcomm, 2013):
Each block holds one molecule with its values, some of them ahead of it.

What was measured:
[1] = biological target: T1, Transient receptor potential cation channel subfamily V member 4 (Homo sapiens, UniProt Q9HBA0); test: Antagonist activity at human TRPV4
[2] = biological target: T1, Transient receptor potential cation channel subfamily V member 4; test: Antagonist activity at human TRPV4 expressed in CHOK1 cells assessed as inhibition of PF-04674114/GSK1016790A-induced changes in intracellular calcium level measured for 5 mins by FLIPR assay; type: cell-based, CHO-K1
[3] = biological target: Transient receptor potential cation channel subfamily M member 8 (Homo sapiens, UniProt Q7Z2W7); test: Antagonist activity at human TRPM8
[4] = biological target: T2, Transient receptor potential cation channel subfamily V member 1 (Homo sapiens, UniProt Q8NER1); test: Agonist activity at human TRPV1
[5] = biological target: T2, Transient receptor potential cation channel subfamily V member 1; test: Antagonist activity at human TRPV1
[6] = biological target: T3, Transient receptor potential cation channel subfamily A member 1 (Homo sapiens, UniProt O75762); test: Agonist activity at human TRPA1
[7] = biological target: T3, Transient receptor potential cation channel subfamily A member 1; test: Antagonist activity at human TRPA1
[8] = biological target: T4, Transient receptor potential cation channel subfamily V member 4 (Rattus norvegicus, UniProt Q9ERZ8); test: Agonist activity at rat TRPV4 expressed in CHOK1 cells assessed as changes in intracellular calcium level measured for 5 mins by FLIPR assay; type: cell-based, CHO-K1
[9] = biological target: T4, Transient receptor potential cation channel subfamily V member 4; test: Antagonist activity at rat TRPV4 expressed in CHOK1 cells assessed as inhibition of PF-04674114/GSK1016790A-induced changes in intracellular calcium level measured for 5 mins by FLIPR assay; type: cell-based, CHO-K1
[10] = biological target: T1, Transient receptor potential cation channel subfamily V member 4; test: Agonist activity at human TRPV4 expressed in CHOK1 cells assessed as changes in intracellular calcium level measured for 5 mins by FLIPR assay; type: cell-based, CHO-K1
[11] = Oral bioavailability in Sprague-Dawley rat at 2 mg/kg; type: ADME, organism-based; conditions: in vivo
[12] = Tmax in Sprague-Dawley rat at 2 mg/kg, po; type: ADME, organism-based; design: dose 2 mg/kg, route oral; conditions: in vivo
Rattus norvegicus [13] = test: fCmax in Sprague-Dawley rat at 2 mg/kg, po; type: ADME, organism-based; design: dose 2 mg/kg, route oral; conditions: in vivo
[14] = Volume of distribution at steady state in Sprague-Dawley rat at 1 mg/kg, iv; type: ADME, organism-based; design: dose 1 mg/kg, route intravenous; conditions: in vivo, read-out: Vdss
Rattus norvegicus [15] = test: Unbound clearance in Sprague-Dawley rat at 1 mg/kg, iv; type: ADME, organism-based; design: dose 1 mg/kg, route intravenous; conditions: in vivo
[16] = Clearance in Sprague-Dawley rat at 1 mg/kg, iv; type: ADME, organism-based; design: dose 1 mg/kg, route intravenous; conditions: in vivo
[17] = Half life in Sprague-Dawley rat at 1 mg/kg, iv; type: ADME, organism-based; design: dose 1 mg/kg, route intravenous; conditions: in vivo
[18] = biological target: Voltage-gated inwardly rectifying potassium channel KCNH2 (Homo sapiens, UniProt Q12809); test: Inhibition of dofetilide binding to human ERG
[19] = Lipophilicity, log D of the compound; type: physicochemical; conditions: octanol/water
CYP2D6 = CYP2D6 (Homo sapiens, UniProt P10635); test: Inhibition of CYP2D6 (unknown origin) at 3 uM relative to control; type: ADME
CYP3A4 = CYP3A4 (Homo sapiens, UniProt P08684); test: Inhibition of CYP3A4 (unknown origin) at 3 uM relative to control; type: ADME
CYP2C9 = CYP2C9 (Homo sapiens, UniProt P11712); test: Inhibition of CYP2C9 (unknown origin) at 3 uM relative to control; type: ADME
CYP1A2 = biological target: T5, CYP1A2 (Homo sapiens, UniProt P05177); test: Inhibition of CYP1A2 (unknown origin) at 3 uM relative to control; type: ADME
T5 sequence (P05177 whole entry): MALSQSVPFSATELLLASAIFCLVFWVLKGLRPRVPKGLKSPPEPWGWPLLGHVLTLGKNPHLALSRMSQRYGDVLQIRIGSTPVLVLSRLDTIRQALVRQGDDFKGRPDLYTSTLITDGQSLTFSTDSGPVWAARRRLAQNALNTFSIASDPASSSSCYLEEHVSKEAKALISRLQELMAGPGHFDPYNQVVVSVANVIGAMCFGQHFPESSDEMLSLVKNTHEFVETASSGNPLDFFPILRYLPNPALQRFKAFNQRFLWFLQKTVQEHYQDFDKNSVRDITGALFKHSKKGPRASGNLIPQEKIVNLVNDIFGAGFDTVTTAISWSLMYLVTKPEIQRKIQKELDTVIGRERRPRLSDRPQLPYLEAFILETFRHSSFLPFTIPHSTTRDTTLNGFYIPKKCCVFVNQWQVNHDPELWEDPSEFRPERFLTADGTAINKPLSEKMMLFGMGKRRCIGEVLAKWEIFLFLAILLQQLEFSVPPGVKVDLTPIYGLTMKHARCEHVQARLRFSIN

[20] = Clearance in rat liver microsomes; type: ADME; conditions: read-out: CLH
[21] = Clearance in human liver microsomes; type: ADME; conditions: read-out: CLH

T1 sequence (Q9HBA0 whole entry): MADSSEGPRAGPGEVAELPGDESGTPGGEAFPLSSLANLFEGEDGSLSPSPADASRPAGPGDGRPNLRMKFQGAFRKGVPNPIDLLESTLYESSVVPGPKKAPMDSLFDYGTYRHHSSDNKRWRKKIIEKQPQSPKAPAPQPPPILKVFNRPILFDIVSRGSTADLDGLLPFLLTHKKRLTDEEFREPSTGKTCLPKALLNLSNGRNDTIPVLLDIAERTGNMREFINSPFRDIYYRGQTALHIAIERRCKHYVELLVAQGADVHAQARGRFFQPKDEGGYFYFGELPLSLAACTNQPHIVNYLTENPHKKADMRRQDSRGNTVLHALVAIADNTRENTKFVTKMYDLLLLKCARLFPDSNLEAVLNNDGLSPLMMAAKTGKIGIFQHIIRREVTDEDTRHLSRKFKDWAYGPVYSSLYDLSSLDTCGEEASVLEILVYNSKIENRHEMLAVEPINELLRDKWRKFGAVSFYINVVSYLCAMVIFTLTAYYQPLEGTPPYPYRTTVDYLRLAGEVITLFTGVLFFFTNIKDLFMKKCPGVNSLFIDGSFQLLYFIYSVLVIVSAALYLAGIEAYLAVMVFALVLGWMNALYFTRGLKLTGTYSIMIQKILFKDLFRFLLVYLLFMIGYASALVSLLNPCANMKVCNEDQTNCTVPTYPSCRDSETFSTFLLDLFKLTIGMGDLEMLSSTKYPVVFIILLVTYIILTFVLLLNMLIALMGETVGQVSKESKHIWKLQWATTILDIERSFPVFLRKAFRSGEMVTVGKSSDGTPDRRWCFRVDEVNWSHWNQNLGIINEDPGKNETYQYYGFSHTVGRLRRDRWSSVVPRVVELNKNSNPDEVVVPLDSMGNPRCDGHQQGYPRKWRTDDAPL
T2 sequence (Q8NER1 whole entry): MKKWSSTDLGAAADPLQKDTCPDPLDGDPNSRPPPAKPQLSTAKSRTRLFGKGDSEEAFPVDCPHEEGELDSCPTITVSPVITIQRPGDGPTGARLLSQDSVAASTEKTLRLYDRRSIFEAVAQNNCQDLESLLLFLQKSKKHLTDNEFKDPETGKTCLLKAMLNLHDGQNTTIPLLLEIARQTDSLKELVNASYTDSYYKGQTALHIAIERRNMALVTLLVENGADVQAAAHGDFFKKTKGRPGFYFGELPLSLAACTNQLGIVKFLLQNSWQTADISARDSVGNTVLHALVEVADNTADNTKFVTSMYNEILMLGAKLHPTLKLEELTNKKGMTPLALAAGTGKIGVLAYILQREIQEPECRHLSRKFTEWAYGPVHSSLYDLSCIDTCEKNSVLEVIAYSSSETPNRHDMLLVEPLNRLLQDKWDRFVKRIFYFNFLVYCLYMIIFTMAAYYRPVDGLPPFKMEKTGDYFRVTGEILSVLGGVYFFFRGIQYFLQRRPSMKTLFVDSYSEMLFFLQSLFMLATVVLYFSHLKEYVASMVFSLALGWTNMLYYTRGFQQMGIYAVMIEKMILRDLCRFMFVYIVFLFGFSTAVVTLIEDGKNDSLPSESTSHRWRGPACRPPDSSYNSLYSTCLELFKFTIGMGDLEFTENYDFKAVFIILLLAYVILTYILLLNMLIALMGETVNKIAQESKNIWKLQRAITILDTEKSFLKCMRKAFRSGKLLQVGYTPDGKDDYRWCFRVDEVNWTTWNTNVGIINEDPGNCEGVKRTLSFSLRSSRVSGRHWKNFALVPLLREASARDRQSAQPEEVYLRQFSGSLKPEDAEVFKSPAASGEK
T3 sequence (O75762 whole entry): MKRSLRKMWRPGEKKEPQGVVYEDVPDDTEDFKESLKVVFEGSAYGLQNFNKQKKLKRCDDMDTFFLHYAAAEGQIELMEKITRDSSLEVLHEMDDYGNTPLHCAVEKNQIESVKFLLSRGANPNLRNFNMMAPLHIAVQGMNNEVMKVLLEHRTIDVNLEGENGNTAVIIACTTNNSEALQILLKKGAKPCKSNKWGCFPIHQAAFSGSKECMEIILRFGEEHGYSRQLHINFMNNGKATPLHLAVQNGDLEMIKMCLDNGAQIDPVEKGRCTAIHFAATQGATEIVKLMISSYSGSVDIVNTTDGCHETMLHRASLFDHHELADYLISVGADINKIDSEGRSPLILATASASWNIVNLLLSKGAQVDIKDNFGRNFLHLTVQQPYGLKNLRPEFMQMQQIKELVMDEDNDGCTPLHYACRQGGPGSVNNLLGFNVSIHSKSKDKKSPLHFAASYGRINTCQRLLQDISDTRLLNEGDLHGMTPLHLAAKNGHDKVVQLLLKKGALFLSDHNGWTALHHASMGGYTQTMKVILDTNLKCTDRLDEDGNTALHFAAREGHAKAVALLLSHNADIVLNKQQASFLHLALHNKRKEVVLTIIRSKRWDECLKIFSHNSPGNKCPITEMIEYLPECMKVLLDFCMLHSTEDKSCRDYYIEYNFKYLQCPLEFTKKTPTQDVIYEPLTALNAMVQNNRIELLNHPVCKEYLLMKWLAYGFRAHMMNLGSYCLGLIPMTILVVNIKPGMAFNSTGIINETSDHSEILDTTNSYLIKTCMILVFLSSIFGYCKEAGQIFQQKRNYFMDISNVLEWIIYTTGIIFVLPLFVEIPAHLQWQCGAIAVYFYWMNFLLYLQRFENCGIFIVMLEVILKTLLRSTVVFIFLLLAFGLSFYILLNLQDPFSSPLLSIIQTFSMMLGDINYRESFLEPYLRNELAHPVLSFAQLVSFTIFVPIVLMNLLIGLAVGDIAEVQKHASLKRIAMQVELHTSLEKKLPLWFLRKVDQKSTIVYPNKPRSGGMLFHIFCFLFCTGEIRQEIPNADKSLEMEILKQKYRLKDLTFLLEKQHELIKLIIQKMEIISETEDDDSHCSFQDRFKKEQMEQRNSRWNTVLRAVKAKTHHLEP
T4 sequence (Q9ERZ8 whole entry): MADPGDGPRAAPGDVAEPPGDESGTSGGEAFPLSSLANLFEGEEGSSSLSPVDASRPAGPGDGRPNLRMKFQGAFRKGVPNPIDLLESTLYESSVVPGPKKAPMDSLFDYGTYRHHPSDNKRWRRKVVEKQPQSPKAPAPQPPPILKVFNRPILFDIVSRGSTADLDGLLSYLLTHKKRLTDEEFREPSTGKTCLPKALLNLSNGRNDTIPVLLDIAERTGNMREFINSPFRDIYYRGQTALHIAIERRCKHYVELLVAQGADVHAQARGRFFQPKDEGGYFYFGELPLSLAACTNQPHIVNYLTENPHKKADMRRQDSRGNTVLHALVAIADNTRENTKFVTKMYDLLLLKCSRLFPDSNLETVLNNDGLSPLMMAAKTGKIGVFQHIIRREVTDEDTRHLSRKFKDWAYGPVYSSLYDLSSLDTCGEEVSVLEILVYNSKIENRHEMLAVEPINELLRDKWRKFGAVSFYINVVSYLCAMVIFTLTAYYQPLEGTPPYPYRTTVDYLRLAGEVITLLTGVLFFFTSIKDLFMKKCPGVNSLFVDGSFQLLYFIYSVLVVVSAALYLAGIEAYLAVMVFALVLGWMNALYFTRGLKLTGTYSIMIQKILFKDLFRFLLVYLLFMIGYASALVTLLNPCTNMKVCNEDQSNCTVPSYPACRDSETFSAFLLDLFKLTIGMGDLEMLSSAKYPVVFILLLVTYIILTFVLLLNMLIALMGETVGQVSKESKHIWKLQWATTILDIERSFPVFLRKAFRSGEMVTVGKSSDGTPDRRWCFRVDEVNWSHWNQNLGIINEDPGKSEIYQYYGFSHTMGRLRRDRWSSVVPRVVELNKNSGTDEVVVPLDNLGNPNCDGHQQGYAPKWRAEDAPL
Transient receptor potential cation channel subfamily M member 8, sequence (Q7Z2W7 whole entry): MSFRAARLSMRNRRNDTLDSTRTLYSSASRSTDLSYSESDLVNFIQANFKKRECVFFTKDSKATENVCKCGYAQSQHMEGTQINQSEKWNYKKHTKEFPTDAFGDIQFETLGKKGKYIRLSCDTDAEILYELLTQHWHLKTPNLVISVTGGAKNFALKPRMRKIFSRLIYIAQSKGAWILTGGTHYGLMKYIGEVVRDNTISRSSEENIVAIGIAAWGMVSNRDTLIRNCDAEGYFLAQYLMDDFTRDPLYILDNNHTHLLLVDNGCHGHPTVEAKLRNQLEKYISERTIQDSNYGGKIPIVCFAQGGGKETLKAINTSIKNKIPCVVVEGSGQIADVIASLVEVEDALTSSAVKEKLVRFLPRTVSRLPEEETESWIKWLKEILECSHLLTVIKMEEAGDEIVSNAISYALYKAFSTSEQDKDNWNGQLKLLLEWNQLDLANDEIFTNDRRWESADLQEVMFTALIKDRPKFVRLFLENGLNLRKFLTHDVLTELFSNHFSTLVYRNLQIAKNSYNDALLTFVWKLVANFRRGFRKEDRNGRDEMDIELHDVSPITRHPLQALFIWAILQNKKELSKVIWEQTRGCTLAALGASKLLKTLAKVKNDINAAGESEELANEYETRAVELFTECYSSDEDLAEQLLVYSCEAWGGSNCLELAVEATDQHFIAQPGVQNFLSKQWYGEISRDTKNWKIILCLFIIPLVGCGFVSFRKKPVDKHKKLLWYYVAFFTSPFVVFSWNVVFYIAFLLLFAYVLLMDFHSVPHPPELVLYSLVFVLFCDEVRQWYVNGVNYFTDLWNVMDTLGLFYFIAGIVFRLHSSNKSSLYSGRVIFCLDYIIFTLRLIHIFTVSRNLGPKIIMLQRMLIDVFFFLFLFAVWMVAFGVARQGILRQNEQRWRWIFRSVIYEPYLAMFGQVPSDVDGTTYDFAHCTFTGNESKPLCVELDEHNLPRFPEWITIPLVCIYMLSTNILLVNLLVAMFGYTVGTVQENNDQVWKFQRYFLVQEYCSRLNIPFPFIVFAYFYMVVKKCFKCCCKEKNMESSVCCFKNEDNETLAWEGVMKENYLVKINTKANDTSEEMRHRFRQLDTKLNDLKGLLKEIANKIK

SMILES: O=S(=O)(c1ccc(Cl)cc1Cl)N1CCC(O)(CSc2ccncc2)CC1
- IC50 [1]: 2.2 µM

SMILES: N#Cc1ccc(OCC2(O)CN(S(=O)(=O)c3ccc(Cl)cc3C#N)C2)cc1F
- IC50 [2]: 0.0034 µM

SMILES: N#Cc1ccc(OCC2(O)CN(S(=O)(=O)c3ccc(Cl)cc3C#N)C2)cc1Cl
- IC50 [2]: 0.0036 µM

SMILES: N#Cc1ccc(OCC2(O)CN(S(=O)(=O)c3ccc(Cl)cc3Cl)C2)cc1F
- bioavailability [11]: 73%
- Tmax [12]: 0.75 h
- fCmax (Rattus norvegicus [13]): 16 nM
- Vd [14]: 4.3 L/kg
- CL free (Rattus norvegicus [15]): 756 mL/min/kg
- clearance [16]: 23.5 mL/min/kg
- half-life [17]: 2.2 h
- IC50 [18]: 9.67 µM
- logD [19]: 3.2
- inhibition at 3 µM (CYP2D6): < 20%
- inhibition at 3 µM (CYP3A4): < 20%
- inhibition at 3 µM (CYP2C9): < 20%
- inhibition at 3 µM (CYP1A2): < 20%
- microsomal CLint [20]: 87 µL/min/mg
- microsomal CLint [21]: < 8.1 µL/min/mg
- IC50 [3]: 9.58 µM
- EC50 [4]: > 20 µM
- IC50 [5]: > 16 µM
- EC50 [6]: > 12.5 µM
- IC50 [7]: > 12.5 µM
- EC50 [8]: > 1 µM
- IC50 [9]: 0.0341 µM
- EC50 [10]: > 1 µM
- IC50 [2]: 0.0038 µM

Further lines, results first:

- IC50 [2]: 0.0129 µM
SMILES: N#Cc1ccc(OCC2(O)CCN(S(=O)(=O)c3ccc(Cl)cc3Cl)CC2)cc1F

- IC50 [2]: 0.0491 µM
SMILES: N#Cc1ccc(S(=O)(=O)N2CCC(O)(COc3ccc(C#N)c(F)c3)CC2)c(Cl)c1

- IC50 [3]: 4.8 µM
- EC50 [4]: > 20 µM
- IC50 [5]: > 3.9 µM
- EC50 [6]: > 12.5 µM
- IC50 [7]: > 12.5 µM
- EC50 [8]: > 1 µM
- IC50 [9]: 1.15 µM
- EC50 [10]: > 1 µM
- IC50 [2]: 0.0497 µM
SMILES: N#Cc1ccc(OCC2(O)CCN(S(=O)(=O)c3ccc(Cl)cc3Cl)CC2)cc1

- IC50 [2]: 0.0505 µM
SMILES: N#Cc1ccc(S(=O)(=O)N2CCC(O)(COc3ccc(C#N)c(F)c3)CC2)c(C#N)c1

- IC50 [2]: 0.004 µM
SMILES: N#Cc1ccc(S(=O)(=O)N2CC(O)(COc3ccc(C#N)c(Cl)c3)C2)c(Cl)c1
